{"source": "paper PMC7753999", "about": "“Molecular docking‐assisted screening reveals tannic acid as a natural protein disulphide isomerase inhibitor with antiplatelet and antithrombotic activities” (Journal of Cellular and Molecular Medicine, 2020)", "key": {"ERp72": {"target": "T1, ERp72 (Homo sapiens, UniProt P13667)", "T1 construct": "gene PDIA4", "T1 sequence (P13667 21-645)": "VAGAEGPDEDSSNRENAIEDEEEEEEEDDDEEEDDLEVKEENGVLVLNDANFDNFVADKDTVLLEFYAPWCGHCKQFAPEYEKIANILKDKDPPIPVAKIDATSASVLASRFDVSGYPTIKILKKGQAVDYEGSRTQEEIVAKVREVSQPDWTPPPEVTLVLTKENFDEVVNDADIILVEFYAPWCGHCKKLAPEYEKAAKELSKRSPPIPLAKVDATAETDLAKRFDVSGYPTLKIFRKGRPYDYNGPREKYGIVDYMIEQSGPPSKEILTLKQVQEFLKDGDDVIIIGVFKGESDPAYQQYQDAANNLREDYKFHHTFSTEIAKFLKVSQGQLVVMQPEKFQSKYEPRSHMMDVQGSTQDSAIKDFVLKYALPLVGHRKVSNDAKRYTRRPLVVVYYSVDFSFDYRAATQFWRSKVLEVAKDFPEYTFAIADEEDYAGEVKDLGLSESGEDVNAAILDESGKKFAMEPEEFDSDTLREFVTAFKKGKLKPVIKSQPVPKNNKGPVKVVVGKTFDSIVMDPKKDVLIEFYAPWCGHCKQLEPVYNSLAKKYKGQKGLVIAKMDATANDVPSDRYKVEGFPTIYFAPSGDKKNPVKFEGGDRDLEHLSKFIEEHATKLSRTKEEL", "assay": "Di-E-GSSG fluorescence reductase assay, recombinant enzyme […]", "type": "biochemical"}, "ERp57": {"target": "T2, ERp57 (Homo sapiens, UniProt P30101)", "T2 construct": "gene PDIA3", "T2 sequence (P30101 25-505)": "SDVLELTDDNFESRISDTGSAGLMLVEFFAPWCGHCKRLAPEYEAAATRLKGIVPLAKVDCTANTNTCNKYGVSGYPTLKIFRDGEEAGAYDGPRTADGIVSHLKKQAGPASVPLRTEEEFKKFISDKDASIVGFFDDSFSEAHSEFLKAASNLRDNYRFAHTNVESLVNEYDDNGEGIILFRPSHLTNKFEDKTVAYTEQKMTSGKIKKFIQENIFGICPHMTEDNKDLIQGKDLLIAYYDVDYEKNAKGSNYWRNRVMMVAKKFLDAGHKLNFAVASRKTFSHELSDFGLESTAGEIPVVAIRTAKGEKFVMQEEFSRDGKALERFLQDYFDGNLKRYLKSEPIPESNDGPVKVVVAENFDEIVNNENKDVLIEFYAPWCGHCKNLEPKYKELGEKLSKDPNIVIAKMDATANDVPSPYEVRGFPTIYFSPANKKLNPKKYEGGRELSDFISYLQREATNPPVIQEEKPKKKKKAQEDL", "assay": "Di-E-GSSG fluorescence reductase assay, recombinant enzyme […]", "type": "biochemical"}, "[1]": {"target": "T3, Protein disulphide isomerase (PDI) (Homo sapiens, UniProt P07237)", "T3 construct": "gene P4HB", "T3 sequence (P07237 18-508)": "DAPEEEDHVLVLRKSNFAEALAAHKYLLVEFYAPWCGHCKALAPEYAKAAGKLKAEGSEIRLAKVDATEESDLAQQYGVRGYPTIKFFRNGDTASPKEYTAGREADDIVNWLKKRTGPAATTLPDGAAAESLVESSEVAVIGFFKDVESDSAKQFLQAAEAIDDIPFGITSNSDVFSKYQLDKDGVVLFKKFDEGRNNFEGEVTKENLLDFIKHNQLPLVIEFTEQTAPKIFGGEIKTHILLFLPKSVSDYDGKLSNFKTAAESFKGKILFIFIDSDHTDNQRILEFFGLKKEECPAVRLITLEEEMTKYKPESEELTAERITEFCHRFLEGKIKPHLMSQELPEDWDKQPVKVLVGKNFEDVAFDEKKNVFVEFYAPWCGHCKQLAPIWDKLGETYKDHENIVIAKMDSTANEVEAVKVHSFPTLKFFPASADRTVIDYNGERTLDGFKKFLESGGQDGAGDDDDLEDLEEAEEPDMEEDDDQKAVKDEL", "assay": "SPR with immobilized recombinant human PDI; also inhibits in Di-E-GSSG reductase and insulin reduction assays", "type": "binding"}}, "data": [{"smiles": "O=C(OC[C@H]1O[C@@H](OC(=O)c2cc(O)c(O)c(OC(=O)c3cc(O)c(O)c(O)c3)c2)[C@H](OC(=O)c2cc(O)c(O)c(OC(=O)c3cc(O)c(O)c(O)c3)c2)[C@@H](OC(=O)c2cc(O)c(O)c(OC(=O)c3cc(O)c(O)c(O)c3)c2)[C@@H]1OC(=O)c1cc(O)c(O)c(OC(=O)c2cc(O)c(O)c(O)c2)c1)c1cc(O)c(O)c(OC(=O)c2cc(O)c(O)c(O)c2)c1", "note": "[TA, Tannic acid]", "values": [{"measurement": "Di-E-GSSG fluorescence reductase assay, recombinant enzyme 20 nmol/L", "setting": "ERp72", "result": "TA impaired the reductase activity of other platelet PDI family members ERP57 and ERP72"}, {"measurement": "Di-E-GSSG fluorescence reductase assay, recombinant enzyme 20 nmol/L", "setting": "ERp57", "result": "TA impaired the reductase activity of other platelet PDI family members ERP57 and ERP72"}, {"measurement": "Kd", "setting": "[1]", "result": "< 1.68", "unit": "nM"}]}]}
